Earlier results in patent US8685449B2, “Pharmaceutical composition with anti-obesity activity comprising a premixture of pure orlistat and preparation process” (Laboratorios Bago S.A., priority 2010, dated 2014).

Conditions: particularly in a wet environment and at a temperature above 35° C., and inclusive in a dry environment

For `CCCCCCCCCCC[C@@H](C[C@@H]1OC(=O)[C@H]1CCCCCC)OC(=O)[C@H](CC(C)C)NC=O` [orlistat, (−) tetrahydrolipstatin], the “stability (hydrolisis and thermal degradation)” value is listed as “susceptible to hydrolisis and thermal degradation”.
